Toxic doses and inconclusive results are not listed. No stated cut-off is given here; in the data, active means T/C of 150% or more; inactive means T/C below 125%.
System: L1210 leukemia ip in BDF1 mice, survival T/C
Test: NCI In Vivo Anticancer Drug Screen. Data for tumor model L1210 Leukemia (intraperitoneal) in B6D2F1 (BDF1) mice
Conditions: endpoint: mean survival time, higher = longer survival
Outline: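 Read-out is survival time, reported as the treated-group measurement over the vehicle-control measurement.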

[1] = dose: 100.0 mg/kg/injection, schedule: Q01DX009 (ip), vehicle: Klucel (hydroxypropylcellulose) (HPC)
[2] = dose: 100.0 mg/kg/injection, schedule: Q04DX003 (ip), vehicle: Klucel (hydroxypropylcellulose) (HPC)
[3] = dose: 200.0 mg/kg/injection, schedule: Q01DX009 (ip), vehicle: Klucel (hydroxypropylcellulose) (HPC)
[4] = dose: 200.0 mg/kg/injection, schedule: Q04DX003 (ip), vehicle: Klucel (hydroxypropylcellulose) (HPC)
[5] = dose: 400.0 mg/kg/injection, schedule: Q01DX009 (ip), vehicle: Klucel (hydroxypropylcellulose) (HPC)
[6] = dose: 400.0 mg/kg/injection, schedule: Q04DX003 (ip), vehicle: Klucel (hydroxypropylcellulose) (HPC)
[7] = dose: 100.0 mg/kg/injection, schedule: Q01DX009 (ip), vehicle: saline with Tween-80
[8] = dose: 100.0 mg/kg/injection, schedule: Q04DX003 (ip), vehicle: saline with Tween-80
[9] = dose: 200.0 mg/kg/injection, schedule: Q01DX009 (ip), vehicle: saline with Tween-80
[10] = dose: 200.0 mg/kg/injection, schedule: Q04DX003 (ip), vehicle: saline with Tween-80
[11] = dose: 400.0 mg/kg/injection, schedule: Q04DX003 (ip), vehicle: saline with Tween-80
[12] = dose: 100.0 mg/kg/injection, schedule: Q01DX001 (ip), vehicle: saline
[13] = dose: 200.0 mg/kg/injection, schedule: Q01DX001 (ip), vehicle: saline
[14] = dose: 400.0 mg/kg/injection, schedule: Q01DX001 (ip), vehicle: saline
[15] = dose: 100.0 mg/kg/injection, schedule: Q04DX002 (ip), vehicle: Klucel (hydroxypropylcellulose) (HPC)
[16] = dose: 200.0 mg/kg/injection, schedule: Q04DX002 (ip), vehicle: Klucel (hydroxypropylcellulose) (HPC)
[17] = dose: 400.0 mg/kg/injection, schedule: Q04DX002 (ip), vehicle: Klucel (hydroxypropylcellulose) (HPC)
[18] = dose: 5.0 mg/kg/injection, schedule: Q01DX001 (ip), vehicle: saline
[19] = dose: 20.0 mg/kg/injection, schedule: Q01DX001 (ip), vehicle: saline
[20] = dose: 200.0 mg/kg/injection, schedule: Q01DX001 (ip), vehicle: carboxymethylcellulose (CMC)
[21] = dose: 400.0 mg/kg/injection, schedule: Q01DX001 (ip), vehicle: carboxymethylcellulose (CMC)

Measured: T/C

O=C(NC1c2cc(Cl)ccc2-c2c(Cl)cc(Cl)cc21)C12CC3CC(CC(C3)C1)C2 (centres undefined)
inactive: [1] 96 % of control | [2] 100 % of control | [3] 97 % of control | [4] 93 % of control | [5] 104 % of control | [6] 96 % of control

CC1(Cc2ccccc2)CCC(=O)O1 (centres undefined)
inactive: [7] 98 % of control | [8] 98 % of control | [9] 100 % of control | [10] 96 % of control | dose: 400.0 mg/kg/injection, schedule: Q01DX009 (ip), vehicle: saline with Tween-80 87 % of control | [11] 104 % of control

CNc1[nH]c(=S)ncc1C
inactive: dose: 100.0 mg/kg/injection, schedule: Q01DX Z (ip), vehicle: methylcellulose (MC) 100 % of control | dose: 200.0 mg/kg/injection, schedule: Q01DX Z (ip), vehicle: methylcellulose (MC) 99 % of control

CN(C(=S)SSC(=S)N(C)c1ccccc1)c1ccccc1
inactive: dose: 25.0 mg/kg/injection, schedule: Q01DX009 (ip), vehicle: Klucel (hydroxypropylcellulose) (HPC) 96 % of control | dose: 50.0 mg/kg/injection, schedule: Q01DX009 (ip), vehicle: Klucel (hydroxypropylcellulose) (HPC) 101 % of control | [1] 101 % of control | [2] 105 % of control | [4] 89 % of control | [6] 93 % of control

COC1OCCCC1OC(=O)c1ccccc1 (centres undefined)
inactive: dose: 50.0 mg/kg/injection, schedule: Q01DX001 (ip), vehicle: saline 109 % of control | [12] 103 % of control | [13] 105 % of control | [14] 94 % of control

c1ccc2cc(NCNc3ccc4ccccc4c3)ccc2c1
inactive: [12] 100 % of control | [13] 95 % of control | [14] 100 % of control

O=[N+]([O-])c1cc(Cl)c(Cl)cc1NS(=O)(=O)c1ccccc1
inactive: dose: 25.0 mg/kg/injection, schedule: Q01DX Z (ip), vehicle: carboxymethylcellulose (CMC) 101 % of control | dose: 50.0 mg/kg/injection, schedule: Q01DX Z (ip), vehicle: carboxymethylcellulose (CMC) 98 % of control | dose: 100.0 mg/kg/injection, schedule: Q01DX Z (ip), vehicle: carboxymethylcellulose (CMC) 101 % of control | dose: 200.0 mg/kg/injection, schedule: Q01DX Z (ip), vehicle: carboxymethylcellulose (CMC) 96 % of control | dose: 275.0 mg/kg/injection, schedule: Q01DX015 (ip), vehicle: carboxymethylcellulose (CMC) 90 % of control | dose: 350.0 mg/kg/injection, schedule: Q01DX015 (ip), vehicle: carboxymethylcellulose (CMC) 98 % of control | dose: 425.0 mg/kg/injection, schedule: Q01DX015 (ip), vehicle: carboxymethylcellulose (CMC) 111 % of control | dose: 700.0 mg/kg/injection, schedule: Q01DX015 (ip), vehicle: carboxymethylcellulose (CMC) 86 % of control

O=S(Cc1ccc(Cl)cc1)C(Cl)(Cl)c1ccc(Cl)cc1 (centres undefined)
inactive: [15] 116 % of control | [16] 116 % of control | [17] 94 % of control

O=C(O)c1ccc[n+](Cc2ccccc2)c1
inactive: dose: 75.0 mg/kg/injection, schedule: Q04DX003 (ip), vehicle: saline 90 % of control | dose: 150.0 mg/kg/injection, schedule: Q04DX003 (ip), vehicle: saline 97 % of control | dose: 300.0 mg/kg/injection, schedule: Q04DX003 (ip), vehicle: saline 94 % of control

CCc1cc[c]([Hg][Cl])o1
inactive: dose: 12.5 mg/kg/injection, schedule: Q01DX001 (ip), vehicle: other 100 % of control | dose: 25.0 mg/kg/injection, schedule: Q01DX001 (ip), vehicle: other 100 % of control

N#Cc1ccc2c(c1)Nc1ccccc1S2
inactive: [1] 101 % of control | [2] 103 % of control | [3] 99 % of control | [4] 92 % of control | [5] 89 % of control | [6] 105 % of control

CCC1=NNC(=O)C1(Br)Br
inactive: [18] 105 % of control | dose: 10.0 mg/kg/injection, schedule: Q01DX001 (ip), vehicle: saline 100 % of control | [19] 100 % of control | dose: 40.0 mg/kg/injection, schedule: Q01DX001 (ip), vehicle: saline 97 % of control | dose: 80.0 mg/kg/injection, schedule: Q01DX001 (ip), vehicle: saline 103 % of control

C(=N\Nc1ccc2ccccc2n1)/c1ccccn1
inactive: dose: 9.5 mg/kg/injection, schedule: Q01DX001 (ip), vehicle: other 94 % of control | dose: 19.0 mg/kg/injection, schedule: Q01DX001 (ip), vehicle: other 103 % of control | dose: 38.0 mg/kg/injection, schedule: Q01DX001 (ip), vehicle: other 94 % of control | dose: 75.0 mg/kg/injection, schedule: Q01DX001 (ip), vehicle: other 108 % of control

CC(=O)NC1CCC(CCC2CCCCC2)CC1 (centres undefined)
inactive: dose: 100.0 mg/kg/injection, schedule: Q04DX002 (ip), vehicle: saline with Tween-80 98 % of control | dose: 200.0 mg/kg/injection, schedule: Q04DX002 (ip), vehicle: saline with Tween-80 94 % of control | dose: 400.0 mg/kg/injection, schedule: Q04DX002 (ip), vehicle: saline with Tween-80 98 % of control

O=C(/C=C\c1ccc(NCc2ccc(C(=O)O)cc2)cc1)CCl
inactive: dose: 25.0 mg/kg/injection, schedule: Q04DX003 (ip), vehicle: Klucel (hydroxypropylcellulose) (HPC) 100 % of control | dose: 50.0 mg/kg/injection, schedule: Q01DX001 (ip), vehicle: carboxymethylcellulose (CMC) 91 % of control | dose: 50.0 mg/kg/injection, schedule: Q04DX003 (ip), vehicle: Klucel (hydroxypropylcellulose) (HPC) 90 % of control | [2] 95 % of control | [20] 93 % of control | [21] 98 % of control

c1ccc2c3c(ccc2c1)CCC/C3=N\N=C1/CCCc2ccc3ccccc3c21
inactive: [2] 90 % of control | [4] 98 % of control | [6] 92 % of control

CC(C)OC(=O)Nc1cccnc1
inactive: [15] 92 % of control | [16] 98 % of control | [17] 103 % of control

Cc1cc(NC(=O)c2ccccc2)c(C)cc1N
inactive: dose: 100.0 mg/kg/injection, schedule: Q01DX001 (ip), vehicle: carboxymethylcellulose (CMC) 92 % of control | [20] 99 % of control | [21] 101 % of control

c1ccc(COCC[P+](c2ccccc2)(c2ccccc2)c2ccccc2)cc1
inactive: [18] 94 % of control | [19] 87 % of control

Cc1nc(Cl)c(C#N)nc1C
inactive: dose: 50.0 mg/kg/injection, schedule: Q01DX009 (ip), vehicle: saline with Tween-80 100 % of control | [7] 96 % of control | [8] 100 % of control | [9] 89 % of control | [10] 94 % of control

C1CCC(CCCC(CCCC2CCCC2)CCCC2CCCC2)C1
inactive: dose: 100.0 mg/kg/injection, schedule: Q01DX001 (ip), vehicle: saline with Tween-80 93 % of control | dose: 200.0 mg/kg/injection, schedule: Q01DX001 (ip), vehicle: saline with Tween-80 93 % of control | dose: 400.0 mg/kg/injection, schedule: Q01DX001 (ip), vehicle: saline with Tween-80 89 % of control

O=C(NNCCO)C(O)C(O)C(O)C(O)CO (centres undefined)
inactive: dose: 100.0 mg/kg/injection, schedule: Q04DX003 (ip), vehicle: saline 97 % of control | dose: 200.0 mg/kg/injection, schedule: Q04DX003 (ip), vehicle: saline 97 % of control | dose: 400.0 mg/kg/injection, schedule: Q04DX003 (ip), vehicle: saline 97 % of control

Cn1c(=O)c2c(nc(CCCCCCCc3nc4c(c(=O)n(C)c(=O)n4C)n3C)n2C)n(C)c1=O
inactive: [12] 98 % of control | [13] 98 % of control | [14] 98 % of control

CC1CCN(C(=O)Nc2ccccc2)CC1
inactive: [15] 98 % of control | [16] 117 % of control | [17] 103 % of control

CCOC(=O)N1C2CCC(C2)N1C(=O)OCC
inactive: [12] 103 % of control | [13] 100 % of control | [14] 103 % of control

CC(=O)NC1CCCCC1
inactive: [8] 95 % of control | [10] 98 % of control | [11] 92 % of control

CNC(=O)Nc1cccc([N+](=O)[O-])c1OC
inactive: [15] 100 % of control | [16] 103 % of control | [17] 106 % of control

— PubChem BioAssay AID248 (DTP/NCI, 2004)
